Results from US10858479B2, “Y-type discrete polyethylene glycol derivative and preparation method thereof” (JenKem Technology Co., Ltd. (Beijing), priority 2015, dated 2020).
Where two headings read alike, the source gives them in different places.

Tests used:
[1] = Comparison test of solubility of derivatives in water
Description: 20.0 mg cholesterol derivative of (l) prepared in Example 7 was dispersed in 50 mL water, 5 mL was taken out therefrom and added with 1.5 mL water, the resulting mixture was placed in a 20° C. water bath, and shaken vigorously for 30 s every 5 min.
24.2 mg cholesterol derivative of mEG7-OH prepared in Example 8 was dispersed in 50 mL of water, 5 mL was taken out therefrom and added with 5 mL water, the resulting mixture was shaken vigorously for 30 s every 5 min.
111.0 mg the hexadecanol derivative of (1) prepared in Example 7 was dispersed in 25 μL of water and shaken vigorously for 30 s every 5 min.
112.9 mg the hexadecanol derivative of mEG7-OH prepared in Example 8 was dispersed in 50 μL of water and shaken vigorously for 30 s every 5 min.
101.3 mg the menthol derivative of mEG7-OH prepared in Example 8 was dispersed in 50 μL of water and vigorously shaken for 30 s every 5 min. After 30 min, the solution was turbid; another 50 μL of water was added, the resulting mixture was vigorously shaken for 30 s every 5 min.

[2] = Comparison test of dispersibility of cholesterol and cholesterol derivatives in water; assay type: physicochemical; details: 20 mg in 50 mL water, 20° C. water bath, FIG. 7

solubility [1] | solubility ([1]; listed as Hexadecanol) | solubility ([1]; listed as Menthol) | solubility ([1]; listed as Cholesterol) | disperse state in water [2] | Compound
< 1 mg/100 g H2O | <1 mg/100 g H2O |  |  |  | CCCCCCCCCCCCCCCCO [hexadecanol]
< 100 mg/100 g H2O |  | <100 mg/100 g H2O |  |  | CC1CCC(C(C)C)C(O)C1 (centres unmarked) [menthol]
< 0.2 mg/100 g H2O |  |  | <0.2 mg/100 g H2O | completely insoluble | CC(C)CCC[C@@H](C)[C@H]1CC[C@H]2[C@@H]3CC=C4C[C@@H](O)CC[C@]4(C)[C@H]3CC[C@]12C [cholesterol]
 |  |  |  | white emulsion | COCCOCCOCCOCCOCCOCCOCCOC(=O)O[C@H]1CC[C@@]2(C)C(=CC[C@H]3[C@@H]4CC[C@H]([C@H](C)CCCC(C)C)[C@@]4(C)CC[C@@H]32)C1 [cholesterol derivative of mEG7-OH]
